Results from the CheMixHub viscosity set.
“And” between values parts separate entries of the source, which are not always exact repeats. Equal entries are not always repeated. ± gives the uncertainty stated by the source.

Assay: xn = mol fraction of the nth substance listed

OCC(F)(F)F + CCO
viscosity [mPa·s]
Details	298.15 K	303.15 K	308.15 K	313.15 K	318.15 K	323.15 K
100 kPa, x1 = 0.1081	1.09	1	0.92 ± 0.2	0.84 ± 0.2	0.77 ± 0.2	0.71 ± 0.2
100 kPa, x1 = 0.2039	1.09	0.99 ± 0.2	0.91 ± 0.2	0.83 ± 0.2	0.76 ± 0.2	0.7 ± 0.2
100 kPa, x1 = 0.304	1.1	0.99 ± 0.2	0.91 ± 0.2	0.83 ± 0.2	0.76 ± 0.2	0.7 ± 0.2
100 kPa, x1 = 0.3989	1.12	1.01	0.92 ± 0.2	0.84 ± 0.2	0.77 ± 0.2	0.7 ± 0.2
100 kPa, x1 = 0.508	1.16	1.05	0.95 ± 0.2	0.86 ± 0.2	0.79 ± 0.2	0.72 ± 0.2
100 kPa, x1 = 0.601	1.22 ± 0.6	1.1	0.99 ± 0.2	0.9 ± 0.2	0.82 ± 0.2	0.75 ± 0.2
100 kPa, x1 = 0.7087	1.31 ± 0.6	1.18	1.06	0.96 ± 0.2	0.87 ± 0.2	0.79 ± 0.2
100 kPa, x1 = 0.7984	1.4 ± 0.6	1.26 ± 0.6	1.12	1.02	0.92 ± 0.2	0.83 ± 0.2
100 kPa, x1 = 0.9032	1.56 ± 0.6	1.38 ± 0.6	1.23 ± 0.6	1.11	0.99 ± 0.2	0.9 ± 0.2
101 kPa, x1 = 0.01998	1.104 ± 0.052	–	–	–	–	–
101 kPa, x1 = 0.0384	1.102 ± 0.052	–	–	–	–	–
101 kPa, x1 = 0.05967	1.098 ± 0.052	–	–	–	–	–
101 kPa, x1 = 0.1122	1.097 ± 0.052	–	–	–	–	–
101 kPa, x1 = 0.1523	1.089 ± 0.052	–	–	–	–	–
101 kPa, x1 = 0.2584	1.082 ± 0.051	–	–	–	–	–
101 kPa, x1 = 0.3059	1.105 ± 0.052	–	–	–	–	–
101 kPa, x1 = 0.5638	1.215 ± 0.057	–	–	–	–	–
101 kPa, x1 = 0.8074	1.427 ± 0.066	–	–	–	–	–

Brc1ccccc1 + C1CCOC1
viscosity [mPa·s], 101 kPa
Details	x2 = 0.1051	x2 = 0.2012	x2 = 0.3022	x2 = 0.4031	x2 = 0.4987
298.15 K	1.014 ± 0.0082	0.9619 ± 0.0078	0.9067 ± 0.0074	0.8488 ± 0.007	0.7916 ± 0.0066
313.15 K	0.8409 ± 0.007	0.8 ± 0.0067	0.7551 ± 0.0064	0.7079 ± 0.006	0.6622 ± 0.0057

C1COCCO1 + CC(C)O
viscosity [mPa·s]
Details	298.15 K	303.15 K	308.15 K	313.15 K
101 kPa, x1 = 0.4	1.078 ± 0.026	–	–	–
101 kPa, x2 = 0.1382	–	0.9888 ± 0.017	0.9165 ± 0.016	–
101 kPa, x2 = 0.2768	–	0.9414 ± 0.016	0.8803 ± 0.015	–
101 kPa, x2 = 0.3911	–	0.9353 ± 0.015	0.8656 ± 0.014	–
101 kPa, x2 = 0.4934	–	0.9403 ± 0.015	0.8625 ± 0.014	–
101 kPa, x2 = 0.5928	–	0.9543 ± 0.015	0.8778 ± 0.014	–
101 kPa, x2 = 0.6977	–	1.014 ± 0.016	0.9221 ± 0.014	–
101 kPa, x2 = 0.7841	–	1.112 ± 0.017	1.012 ± 0.016	–
101 kPa, x2 = 0.8535	–	1.259 ± 0.019	1.128 ± 0.017	–
101 kPa, x2 = 0.929	–	1.47 ± 0.022	1.308 ± 0.02	–
101.3 kPa, x1 = 0.038	1.821 ± 0.044	1.578 ± 0.038	1.38 ± 0.034	1.218 ± 0.03
101.3 kPa, x1 = 0.1103	1.479 ± 0.036	1.312 ± 0.032	1.17 ± 0.029	1.039 ± 0.026
101.3 kPa, x1 = 0.213	1.224 ± 0.03	1.099 ± 0.027	0.9913 ± 0.025	0.8984 ± 0.023
101.3 kPa, x1 = 0.3316	1.075 ± 0.027	0.9775 ± 0.025	0.887 ± 0.023	0.8129 ± 0.021
101.3 kPa, x1 = 0.3634	1.055 ± 0.026	0.9613 ± 0.024	0.8738 ± 0.022	0.8044 ± 0.021
101.3 kPa, x1 = 0.4318	1.014 ± 0.025	0.9242 ± 0.024	0.8492 ± 0.022	0.7791 ± 0.02
101.3 kPa, x1 = 0.5184	0.9926 ± 0.025	0.91 ± 0.023	0.835 ± 0.022	0.7724 ± 0.02
101.3 kPa, x1 = 0.6312	0.9873 ± 0.025	0.9117 ± 0.023	0.837 ± 0.022	0.7769 ± 0.02
101.3 kPa, x1 = 0.6592	0.9898 ± 0.025	0.9161 ± 0.023	0.8392 ± 0.022	0.778 ± 0.02
101.3 kPa, x1 = 0.787	1.048 ± 0.026	0.9473 ± 0.024	0.8747 ± 0.023	0.8157 ± 0.021
101.3 kPa, x1 = 0.891	1.101 ± 0.028	1.01 ± 0.026	0.9326 ± 0.024	0.8715 ± 0.022
101.3 kPa, x1 = 0.935	1.131 ± 0.028	1.048 ± 0.026	0.9724 ± 0.025	0.8943 ± 0.023

O=C[C@H](O)[C@@H](O)[C@H](O)CO + O
viscosity, 101 kPa
Details	x1 = 0.000546	x1 = 0.0009	x1 = 0.00124	x1 = 0.0031	x1 = 0.006	x1 = 0.0063	x1 = 0.013
293.15 K	–	–	–	1.053 ± 0.013 mPa·s	1.118 ± 0.024 mPa·s and 1.118 ± 0.014 mPa·s (2×)	1.118 ± 0.014 mPa·s	1.229 ± 0.026 mPa·s and 1.229 ± 0.015 mPa·s and 1.229 ± 0.016 mPa·s
298.15 K	0.9164 ± 0.013 mPa·s	0.9244 ± 0.013 mPa·s	0.9306 ± 0.013 mPa·s	–	0.9937 ± 0.021 mPa·s and 0.9937 ± 0.012 mPa·s and 0.9937 ± 0.013 mPa·s	0.9937 ± 0.013 mPa·s	–
303.15 K	–	–	–	0.8381 ± 0.01 mPa·s	0.8889 ± 0.019 mPa·s and 0.8889 ± 0.011 mPa·s (2×)	0.8889 ± 0.011 mPa·s	0.986 ± 0.021 mPa·s and 0.986 ± 0.012 mPa·s and 0.986 ± 0.013 mPa·s
308.15 K	–	–	–	0.7529 ± 0.0094 mPa·s	0.7916 ± 0.017 mPa·s and 0.7916 ± 0.0098 mPa·s and 0.7916 ± 0.01 mPa·s	0.7916 ± 0.0099 mPa·s	0.8843 ± 0.019 mPa·s and 0.8843 ± 0.011 mPa·s (2×)
313.15 K	–	–	–	0.683 ± 0.0085 mPa·s	0.7163 ± 0.015 mPa·s and 0.7163 ± 0.0088 mPa·s and 0.7163 ± 0.0091 mPa·s	0.7163 ± 0.009 mPa·s	0.798 ± 0.017 mPa·s and 0.798 ± 0.0099 mPa·s and 0.798 ± 0.01 mPa·s
318.15 K	–	–	–	–	0.6565 ± 0.014 mPa·s and 0.6565 ± 0.0081 mPa·s and 0.6565 ± 0.0084 mPa·s	0.6565 ± 0.0082 mPa·s	0.7216 ± 0.015 mPa·s and 0.7216 ± 0.0089 mPa·s and 0.7216 ± 0.0092 mPa·s

COc1ccccc1O + CNc1ccccc1
303.15 K, 101 kPa
Details	viscosity [mPa·s]
x2 = 0.1	4 ± 0.11
x2 = 0.2	3.72 ± 0.1
x2 = 0.3	3.36 ± 0.09
x2 = 0.4	3.03 ± 0.08
x2 = 0.5	2.76 ± 0.07
x2 = 0.6	2.44 ± 0.06
x2 = 0.7	2.22 ± 0.06
x2 = 0.8	1.99 ± 0.05
x2 = 0.9	1.72 ± 0.05

BrCCBr + Cc1cccc(C)c1
101.33 kPa
Details	viscosity [mPa·s]
298.15 K, x1 = 0.1391	0.6538 ± 0.0082
298.15 K, x1 = 0.269	0.7069 ± 0.0087
298.15 K, x1 = 0.3835	0.8095 ± 0.0099
298.15 K, x1 = 0.4852	0.8843 ± 0.011
298.15 K, x1 = 0.5776	1.002 ± 0.012
298.15 K, x1 = 0.6789	1.064 ± 0.013
298.15 K, x1 = 0.7684	1.191 ± 0.014
298.15 K, x1 = 0.8458	1.307 ± 0.015
298.15 K, x1 = 0.9257	1.447 ± 0.017
308.15 K, x1 = 0.1463	0.587 ± 0.0074
308.15 K, x1 = 0.2621	0.6362 ± 0.0079
308.15 K, x1 = 0.3771	0.7044 ± 0.0086
308.15 K, x1 = 0.4834	0.764 ± 0.0093
308.15 K, x1 = 0.5853	0.8526 ± 0.01
308.15 K, x1 = 0.6796	0.9345 ± 0.011
308.15 K, x1 = 0.7697	1.018 ± 0.012
308.15 K, x1 = 0.8516	1.143 ± 0.013
308.15 K, x1 = 0.9254	1.259 ± 0.015

N#C[S-].[NH4+] + CCn1cc[n+](C)c1.N#C[S-]
viscosity [mPa·s], 100 kPa
Details	298.15 K	303.15 K	308.15 K	313.15 K	318.15 K	323.15 K
x1 = 0.039	25.91 ± 1.2	21.97 ± 1	18.84 ± 0.89	16.11 ± 0.76	14.28 ± 0.67	12.59 ± 0.59
x1 = 0.099	29.91 ± 1.4	25.16 ± 1.2	21.4 ± 1	18.21 ± 0.85	16 ± 0.75	14.03 ± 0.65
x1 = 0.1395	31.58 ± 1.5	26.49 ± 1.2	22.47 ± 1	19.09 ± 0.89	16.71 ± 0.78	14.62 ± 0.68

CCCC#N + CCC(C)O
viscosity [mPa·s], 101.33 kPa
Details	x2 = 0.1016	x2 = 0.1946	x2 = 0.2965	x2 = 0.3938	x2 = 0.4949	x2 = 0.5951	x2 = 0.6966	x2 = 0.7945	x2 = 0.8999
298.15 K	0.572 ± 0.004	0.605 ± 0.004	0.652 ± 0.005	0.717 ± 0.005	0.811 ± 0.007	0.945 ± 0.008	1.141 ± 0.009	1.435 ± 0.011	1.982 ± 0.015
308.15 K	0.508 ± 0.004	0.532 ± 0.004	0.567 ± 0.004	0.616 ± 0.004	0.685 ± 0.005	0.782 ± 0.007	0.921 ± 0.008	1.123 ± 0.009	1.478 ± 0.011
318.15 K	0.454 ± 0.004	0.472 ± 0.004	0.499 ± 0.004	0.536 ± 0.004	0.59 ± 0.004	0.658 ± 0.005	0.758 ± 0.006	0.898 ± 0.007	1.135 ± 0.009
